In patent publication US20250188093A1, “TYK2 INHIBITORS AND USES THEREOF” (Alumis Inc., priority 2022, published 2025):

Columns and labels:
[1] = target: T1, human TYK2 (JH2domain-pseudokinase) (Homo sapiens, UniProt P29597); test: TYK2 JH2 domain binding assay (KINOMEscan)
T1 construct: host or cells: transiently transfected HEK293 cells; unpurified extract
Description: Binding constants for the compounds described herein against the JH2 domain were determined by the following protocol for a KINOMEscan® assay (DiscoveRx). A fusion protein of a partial length construct of human TYK2 (JH2domain-pseudokinase) (amino acids G556 to D888 based on reference sequence NP_003322.3) and the DNA binding domain of NFkB was expressed in transiently transfected HEK293 cells. From these HEK 293 cells, extracts were prepared in M-PER extraction buffer (Pierce) in the presence of Protease Inhibitor Cocktail Complete (Roche) and Phosphatase Inhibitor Cocktail Set II (Merck) per manufacturers' instructions. The TYK2 (JH2domain-pseudokinase) fusion protein was labeled with a chimeric double-stranded DNA tag containing the NFkB binding site fused to an amplicon for qPCR readout, which was added directly to the expression extract (the final concentration of DNA-tag in the binding reaction is 0.1 nM).
Streptavidin-coated magnetic beads (Dynal M280) were treated with a biotinylated small molecule ligand for 30 minutes at room temperature to generate affinity resins the binding assays. The liganded beads were blocked with excess biotin and washed with blocking buffer (SeaBlock (Pierce), 1% BSA, 0.05% Tween 20, 1 mM DTT) to remove unbound ligand and to reduce nonspecific binding.
The binding reaction was assembled by combining 16 μl of DNA-tagged kinase extract, 3.8 μl liganded affinity beads, and 0.18 μl test compound (PBS/0.05% Tween 20/10 mM DTT/0.1% BSA/2 μg/ml sonicated salmon sperm DNA)]. Extracts were used directly in binding assays without any enzyme purification steps at a ≥10,000-fold overall stock dilution (final DNA-tagged enzyme concentration <0.1 nM). Extracts were loaded with DNA-tag and diluted into the binding reaction in a two-step process. First extracts were diluted 1:100 in 1× binding buffer (PBS/0.05% Tween 20/10 mM DTT/0.1% BSA/2 μg/ml sonicated salmon sperm DNA) containing 10 nM DNA-tag. This dilution was allowed to equilibrate at room temperature for 15 minutes and then subsequently diluted 1:100 in 1× binding buffer. Test compounds were prepared as 111× stocks in 100% DMSO. Kds were determined using an 11-point 3-fold compound dilution series with three DMSO control points. All compounds for Kd measurements were distributed by acoustic transfer (non-contact dispensing) in 100% DMSO. The compounds were then diluted directly into the assays such that the final concentration of DMSO was 0.9%. All reactions were performed in polypropylene 384-well plates. Each was a final volume of 0.02 mL. Assays were incubated with shaking for 1 hour at room temperature. Then the beads were pelleted and washed with wash buffer (1×PBS, 0.05% Tween 20) to remove displaced kinase and test compound. The washed based were re-suspended in elution buffer (1×PBS, 0.05% Tween 20, 0.5 μM non-biotinylated affinity ligand) and incubated at room temperature with shaking for 30 minutes. The kinase concentration in the eluates was measured by qPCR. qPCR reactions were assembled by adding 2.5 μL of kinase eluate to 7.5 μL of qPCR master mix containing 0.15 μM amplicon primers and 0.15 μM amplicon probe. The qPCR protocol consisted of a 10 minute hot start at 95° C., followed by 35 cycles of 95° C. for 15 seconds, 60° C. for 1 minute.
Test compounds were prepared as 111× stocks in 100% DMSO. Kds were determined using an 11-point 3-fold compound dilution series with three DMSO control points. All compounds for Kd measurements were distributed by acoustic transfer (non-contact dispensing) in 100% DMSO. The compounds were then diluted directly into the assays such that the final concentration of DMSO was 0.9%. The Kds were determined using a compound top concentration of 30,000 nM. Kd measurements were performed in duplicate.
Binding constants (Kds) were calculated with a standard dose-response curve using the Hill equation: […]
The Hill Slope was set to −1. […]

TYK2 JH1 = target: T2, TYK2 JH1 (Homo sapiens, UniProt P29597); test: KINOMEscan binding, TYK2 JH1
T2 construct: TYK2 JH1
T2 sequence (P29597 897-1176 limits assumed): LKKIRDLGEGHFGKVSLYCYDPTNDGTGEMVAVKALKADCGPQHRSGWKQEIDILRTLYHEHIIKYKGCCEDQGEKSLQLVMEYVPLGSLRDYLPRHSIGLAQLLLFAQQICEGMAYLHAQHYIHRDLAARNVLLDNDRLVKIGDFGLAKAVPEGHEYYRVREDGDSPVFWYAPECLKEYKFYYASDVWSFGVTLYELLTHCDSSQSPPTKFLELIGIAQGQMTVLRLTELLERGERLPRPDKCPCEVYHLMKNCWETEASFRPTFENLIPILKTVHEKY

JAK1 JH2 = target: T3, JAK1 JH2 (Homo sapiens, UniProt P23458); test: KINOMEscan binding, JAK1 JH2
T3 construct: JAK1 JH2
T3 sequence (P23458 583-855 limits assumed): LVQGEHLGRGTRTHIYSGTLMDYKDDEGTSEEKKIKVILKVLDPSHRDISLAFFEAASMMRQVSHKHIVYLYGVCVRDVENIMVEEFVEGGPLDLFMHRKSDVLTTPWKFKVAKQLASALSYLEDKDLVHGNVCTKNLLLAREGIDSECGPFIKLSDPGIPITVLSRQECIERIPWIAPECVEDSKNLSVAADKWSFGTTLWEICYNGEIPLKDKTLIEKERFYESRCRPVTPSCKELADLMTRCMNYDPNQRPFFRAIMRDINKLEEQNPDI

JAK3 JH1 = target: T4, JAK3 JH1 (Homo sapiens, UniProt P52333); test: KINOMEscan binding, JAK3 JH1
T4 construct: JAK3 JH1
T4 sequence (P52333 822-1111 limits assumed): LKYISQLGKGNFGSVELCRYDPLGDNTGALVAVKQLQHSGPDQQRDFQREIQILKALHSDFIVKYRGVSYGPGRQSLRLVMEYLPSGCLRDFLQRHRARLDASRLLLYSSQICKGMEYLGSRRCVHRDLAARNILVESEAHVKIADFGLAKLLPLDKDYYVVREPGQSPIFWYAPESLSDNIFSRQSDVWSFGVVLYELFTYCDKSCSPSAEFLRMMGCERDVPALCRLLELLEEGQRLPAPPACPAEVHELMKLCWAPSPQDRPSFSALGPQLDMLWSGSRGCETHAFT

JAK2 JH2 = target: T5, JAK2 JH2 (Homo sapiens, UniProt O60674); test: KINOMEscan binding, JAK2 JH2
T5 construct: JAK2 JH2
T5 sequence (O60674 545-809 limits assumed): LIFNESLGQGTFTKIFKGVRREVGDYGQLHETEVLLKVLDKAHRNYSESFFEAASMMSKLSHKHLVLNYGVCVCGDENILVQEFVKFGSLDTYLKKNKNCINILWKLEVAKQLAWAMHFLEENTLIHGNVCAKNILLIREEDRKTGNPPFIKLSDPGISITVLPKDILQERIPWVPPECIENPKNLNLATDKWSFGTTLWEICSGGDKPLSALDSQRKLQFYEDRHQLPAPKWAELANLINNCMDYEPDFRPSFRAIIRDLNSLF

JAK2 JH1 = target: T6, JAK2 JH1 (Homo sapiens, UniProt O60674); test: KINOMEscan binding, JAK2 JH1
T6 construct: JAK2 JH1
T6 sequence (O60674 849-1124 limits assumed): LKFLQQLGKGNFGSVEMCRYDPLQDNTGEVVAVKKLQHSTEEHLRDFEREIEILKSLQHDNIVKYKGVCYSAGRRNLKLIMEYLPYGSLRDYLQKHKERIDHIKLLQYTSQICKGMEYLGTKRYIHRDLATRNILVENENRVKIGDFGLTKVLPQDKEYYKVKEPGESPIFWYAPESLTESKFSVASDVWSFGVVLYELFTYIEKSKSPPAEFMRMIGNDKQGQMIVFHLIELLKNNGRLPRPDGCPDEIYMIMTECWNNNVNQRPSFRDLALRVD

JAK1 JH1 = target: T7, JAK1 JH1 (Homo sapiens, UniProt P23458); test: KINOMEscan binding, JAK1 JH1
T7 construct: JAK1 JH1
T7 sequence (P23458 875-1153 limits assumed): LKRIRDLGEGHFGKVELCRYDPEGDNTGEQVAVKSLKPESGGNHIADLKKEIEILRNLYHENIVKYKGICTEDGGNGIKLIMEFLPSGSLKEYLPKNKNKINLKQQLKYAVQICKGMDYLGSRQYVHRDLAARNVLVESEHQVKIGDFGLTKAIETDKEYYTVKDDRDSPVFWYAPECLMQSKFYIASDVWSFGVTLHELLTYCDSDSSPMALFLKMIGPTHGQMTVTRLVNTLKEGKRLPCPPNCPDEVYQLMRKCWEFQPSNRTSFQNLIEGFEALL

IFNa, PBMCs, p-STAT3 = test: IFNa induced p-STAT3 in PBMCs; format: cell-based; conditions: PBMC; human PBMCs, IFNa stimulation
IFNa, PBMCs, p-STAT5 = test: INFα induced pSTAT5 in human PBMC; format: cell-based; conditions: 0.25 h, IFNa 5000 units/ml, 15 minutes
Description: Fresh Human PBMCs were resuspended in RPMI 1640 medium with 10% FBS. Cells were seeded in a round bottom 96-well plate at the concentration of 200,000 cells/well. A 10-point dilution series of test compound (top dose 10 uM, 1:5 dilution) was added to the well using the liquid dispenser (Tecan D300e) and incubated for 1 hour at 37 C. Then human INFα recombinant protein (R&D Systems) was added to the well at the final concentration of 5000 units/ml and incubated for 15 minutes at 37 C. Cell lysates were prepared and analyzed by Phospho STAT5 (Tyr693) Kit (Meso Scale Discovery) following manufacturer's protocol.
For calculation of the inhibition rate, the relative pSTAT5 signal of each well=pSTAT5 signal of each well−the average pSTAT5 signal of baseline.
The inhibition %=(the average pSTAT5 signal of INFα treatment wells−the relative of pSTAT5 signal in each compound containing well)/the average pSTAT5 signal of INFα treatment wells*100%
The curve was plotted as the inhibition % (y-axis) vs. compounds concentration (x-axis) and is fitted with log (inhibitor) vs. normalized response—Variable slope by GraphPad Prism7.0.

T1 sequence (P29597 556-888): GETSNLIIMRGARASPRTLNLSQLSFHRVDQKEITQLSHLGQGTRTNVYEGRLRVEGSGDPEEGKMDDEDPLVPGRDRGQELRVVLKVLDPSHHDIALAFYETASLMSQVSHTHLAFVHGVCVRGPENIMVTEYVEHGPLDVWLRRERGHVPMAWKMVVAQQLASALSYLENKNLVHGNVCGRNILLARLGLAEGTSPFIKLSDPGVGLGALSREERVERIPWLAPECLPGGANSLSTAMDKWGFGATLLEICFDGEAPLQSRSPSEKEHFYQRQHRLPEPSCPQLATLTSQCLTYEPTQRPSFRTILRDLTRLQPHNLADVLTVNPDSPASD

Row | Kd [1] [nM] | Kd (TYK2 JH1) [µM] | Kd (JAK1 JH2) [nM] | Kd (JAK3 JH1) [µM] | Kd (JAK2 JH2) [µM] | Kd (JAK2 JH1) [µM] | Kd (JAK1 JH1) [µM] | Molecule | IC50 (IFNa, PBMCs, p-STAT3) [nM] | IC50 (IFNa, PBMCs, p-STAT5) [nM]
1 | < 10 | ≥ 30 | 1000 to 10000 |  |  |  |  | (1^3E,1^4E,6^1R,6^2R)-3^1-Methyl-1^7-(methylamino)-3^1H-5-oxa-2,7-diaza-1(5,3),3(4,6)-dipyrazolo[1,5-a]pyrimidina-6(1,2)-cyclopentanacyclooctaphan-8-one [Compound 2] |  | 
2 | < 10 | ≥ 30 | 10000 to 30000 |  |  |  |  | CNc1cc2nn3c(cnc13)Nc1cc(cc3c1ncn3C)COC1CCCC1NC2=O (stereo not shown) [Compound 12, (6^1R,6^2R,E)-3^1-Methyl-1^8-(methylamino)-3^1H-5-oxa-2,7-diaza-1(6,3)-imidazo[1,2-b]pyridazina-3(4,6)-benzo[d]imidazola-6(1,2)-cyclopentanacyclooctaphan-8-one] |  | 
3 | < 10 | 10 to 30 | 10 to 1000 |  |  |  |  | CNc1cc2nc3c(cnn13)C(=O)N[C@@H]1CCC[C@H]1OCc1cc(c3nn(C)nc3c1)N2 [Compound 8] |  | 
4 | < 10 | ≥ 30 | 1000 to 10000 |  |  |  |  | CNc1cc2nn3c(cnc13)C(=O)N[C@@H]1CCC[C@H]1OCc1cc(c3nnn(C)c3c1)N2 [Compound 49] |  | 
5 | < 10 | ≥ 30 | 10 to 1000 | 10 to 30 | 1 to 10 | ≥ 30 | ≥ 30 | [2H]C1([2H])O[C@H]2CCC[C@H]2NC(=O)c2cnc3c(NC)cc(nn23)Nc2cc1cc1c2nnn1C [Compound 51] |  | 
6 | < 10 | 10 to 30 | 10 to 1000 | 10 to 30 | 1 to 10 | 1 to 10 | ≥ 30 | CNc1cc2nn3c(cnc13)C(=O)N[C@@H]1CCC[C@H]1OCc1cc(c3nn(C)nc3c1)N2 [Compound 4, (1^5E,3^4E,6^1R,6^2R)-3^2-Methyl-1^8-(methylamino)-3^2H-5-oxa-2,7-diaza-1(6,3),3(4,6)-diimidazo[1,2-b]pyridazina-6(1,2)-cyclopentanacyclooctaphan-8-one] | < 100 | < 100
7 | < 10 | ≥ 30 | 1000 to 10000 |  |  |  |  | CNc1cc2nc3c(cnn13)C(=O)N1CC[C@H](C1)OCc1cc(c3nnn(C)c3c1)N2 [Compound 44] |  | 
8 | < 10 | ≥ 30 | 1000 to 10000 |  |  |  |  | CNc1cc2nc3c(cnn13)C(=O)N1CC[C@@H](C1)OCc1cc(c3nnn(C)c3c1)N2 [Compound 45] |  | 
9 | < 10 | ≥ 30 | 10 to 1000 |  |  |  |  | CNc1cc2nc3c(cnn13)C(=O)N[C@@H]1CCC[C@@H]1OCc1cc(c3nnn(C)c3c1)N2 [Compound 9] |  | 
10 | < 10 | ≥ 30 | 10 to 1000 |  |  |  |  | (1^3E,1^4E,6^1S,6^2R)-3^1-Methyl-1^7-(methylamino)-3^1H-5-oxa-2,7-diaza-1(5,3),3(4,6)-dipyrazolo[1,5-a]pyrimidina-6(1,2)-cyclopentanacyclooctaphan-8-one [Compound 11] |  | 
11 | < 10 | ≥ 30 | 1000 to 10000 | 1 to 10 | 1 to 10 | 10 to 30 | ≥ 30 | [2H]C1([2H])O[C@@H]2CCC[C@H]2NC(=O)c2cnc3c(NC)cc(nn23)Nc2cc1cc1c2nnn1C [Compound 50] |  | 
12 | < 10 | ≥ 30 | 10 to 1000 | ≥ 30 | 1 to 10 | ≥ 30 | ≥ 30 | CNc1cc2nn3c(cnc13)C(=O)N[C@@H]1CCC[C@@H]1OCc1cc(c3c(c1)nnn3C)N2 [Compound 6, (6^1S,6^2R,E)-3^1-Methyl-1^8-(methylamino)-3^1H-5-oxa-2,7-diaza-1(6,3),3(7,5)-diimidazo[1,2-b]pyridazina-6(1,2)-cyclopentanacyclooctaphan-8-one] |  | 
13 | < 10 |  |  | 10 to 30 | 1 to 10 | ≥ 30 | ≥ 30 | CNc1cc2nn3c(cnc13)C(=O)N[C@@H]1CCC[C@H]1OCc1cc(c3nnn(C)c3c1)N2 [Compound 1] | < 100 | < 100
14 | < 10 | ≥ 30 | 10000 to 30000 | ≥ 30 | ≥ 30 | ≥ 30 | ≥ 30 | CNc1cc2nn3c(cnc13)C(=O)N[C@@H]1CCC[C@H]1OCc1cc(c3c(c1)nnn3C)N2 [Compound 3] |  | 
15 | < 10 | ≥ 30 | 10 to 1000 | ≥ 30 | 1 to 10 | ≥ 30 | ≥ 30 | CNc1cc2nn3c(cnc13)C(=O)N[C@@H]1CCC[C@@H]1OCc1cc(c3nnn(C)c3c1)N2 [Compound 5] |  | 
16 | < 10 | ≥ 30 | 10 to 1000 | ≥ 30 | 10 to 30 | ≥ 30 | ≥ 30 | CNc1cc2nn3c(cnc13)C(=O)N[C@@H]1CCC[C@@H]1OCc1cc(c3nn(C)nc3c1)N2 [Compound 7] |  | 

Row | Molecule | Kd [1] [nM] | Kd (TYK2 JH1) [µM] | Kd (JAK1 JH2) [nM] | Kd (JAK3 JH1) [µM] | Kd (JAK2 JH2) [µM] | Kd (JAK2 JH1) [µM] | Kd (JAK1 JH1) [µM] | IC50 (IFNa, PBMCs, p-STAT3) [nM] | IC50 (IFNa, PBMCs, p-STAT5) [nM]
17 | (1^3E,1^4E,3^4E,6^1R,6^2R)-3^2-Methyl-1^7-(methylamino)-3^2H-5-oxa-2,7-diaza-1(5,3),3(4,6)-dipyrazolo[1,5-a]pyrimidina-6(1,2)-cyclopentanacyclooctaphan-8-one [Compound 10] | < 10 | ≥ 30 | 1000 to 10000 |  |  |  |  |  | 
